Calls of active or inactive are those of the source.
Key:
Bile acid receptor = target: T1, Bile acid receptor (Homo sapiens, UniProt Q96RI1); assay: Antagonist activity at FXR (unknown origin) expressed in HEK293T cells cotransfected with pCMV-Script-hFXR/pGL4.11-hSHP-Luciferase incubated for 24 hrs in presence of GW4064 by Steady-glo luciferase assay; format: cell-based
T1 sequence (Q96RI1 whole entry): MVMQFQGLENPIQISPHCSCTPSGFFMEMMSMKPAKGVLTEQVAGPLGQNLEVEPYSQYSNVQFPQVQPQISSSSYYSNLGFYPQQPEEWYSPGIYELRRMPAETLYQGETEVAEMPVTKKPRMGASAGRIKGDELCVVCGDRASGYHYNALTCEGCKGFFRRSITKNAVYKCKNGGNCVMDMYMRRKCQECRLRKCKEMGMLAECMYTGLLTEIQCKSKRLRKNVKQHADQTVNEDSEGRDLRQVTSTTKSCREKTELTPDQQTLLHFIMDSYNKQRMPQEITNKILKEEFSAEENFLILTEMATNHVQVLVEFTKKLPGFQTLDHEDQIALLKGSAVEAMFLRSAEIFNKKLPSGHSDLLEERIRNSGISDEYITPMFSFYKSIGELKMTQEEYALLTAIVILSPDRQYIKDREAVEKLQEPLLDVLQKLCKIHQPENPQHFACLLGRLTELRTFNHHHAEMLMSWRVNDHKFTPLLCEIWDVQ

[1] = target: T2, Bile acid receptor (Mus musculus) (UniProt Q60641); assay: In vivo antagonist activity against FXR in mouse assessed as reduction in Fxr level in presence of CDCA; format: functional
T2 sequence (whole entry): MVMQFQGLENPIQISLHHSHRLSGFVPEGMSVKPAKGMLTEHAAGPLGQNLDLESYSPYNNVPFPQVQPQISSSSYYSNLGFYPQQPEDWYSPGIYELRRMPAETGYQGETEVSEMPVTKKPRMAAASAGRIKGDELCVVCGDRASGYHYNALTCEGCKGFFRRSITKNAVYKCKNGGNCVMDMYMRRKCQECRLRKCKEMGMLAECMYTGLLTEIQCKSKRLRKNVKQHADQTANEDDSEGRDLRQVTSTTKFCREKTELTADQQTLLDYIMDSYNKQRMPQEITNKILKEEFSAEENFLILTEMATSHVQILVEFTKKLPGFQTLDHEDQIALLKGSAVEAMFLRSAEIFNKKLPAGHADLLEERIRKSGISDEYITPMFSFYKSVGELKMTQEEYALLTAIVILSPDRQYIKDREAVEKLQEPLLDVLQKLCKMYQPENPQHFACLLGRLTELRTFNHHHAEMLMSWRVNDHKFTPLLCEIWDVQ

[2] = target: T2, Bile acid receptor (Mus musculus); assay: In vivo antagonist activity against FXR in mouse assessed as reduction in Fxr level in presence of GW4064; format: functional
[3] = target: T2, Bile acid receptor (Mus musculus); assay: In vivo antagonist activity against FXR in microbeta depleted mouse assessed as reduction in taurocholic acid induced Shp mRNA expression in ileum at 10 mg/kg, po incubated for 2 to 48 hrs; format: functional, organism-based; details: time 2-48 hrs
[4] = Drug distribution in C57BL6 mouse intestine at 10 mg/kg, po administered as single dose measured after 8 hrs; format: ADME, organism-based; details: in vivo
[5] = Drug metabolism in C57BL6 mouse serum assessed as ((1S,3aS,5aR,5bR,7aR,9R,11aR,11bR,13aR,13bR)-9-hydroxy-1-isopropyl-5a,5b,8,8,11a-pentamethylicosahydro-1H-cyclopenta[a]chrysene-3a-carbonyl)glycine formation at 10 mg/kg, po administered as single dose measured after 2 hrs; format: ADME, organism-based; details: in vivo
Mus musculus [6] = assay: Anti-NASH activity in GAN-induced mouse assessed as reduction in fasting glucose level at 10 mg/kg measured upto 120 mins; format: functional, organism-based
Mus musculus [7] = assay: Anti-NASH activity in GAN-induced mouse assessed as increase in glucose tolerance at 10 mg/kg; format: functional, organism-based
Mus musculus [8] = assay: Anti-NASH activity in GAN-induced […] mouse assessed as upregulation of […] expression in inguinal white adipose tissue at 10 mg/kg; format: functional, organism-based
Mus musculus [9] = species: Mus musculus; assay: Anti-NASH activity in GAN diet-induced […] mouse assessed as reduction in hepatic triglycerides level; format: functional, organism-based
Mus musculus [10] = species: Mus musculus; assay: Anti-NASH activity in GAN diet-induced […] mouse assessed as reduction in ALT level; format: functional, organism-based
Liver [11] = assay: Anti-NASH activity in GAN diet-induced […] mouse liver assessed as reduction in hepatocyte ballooning by Oil Red O staining based assay; format: functional, cell-based
Liver [12] = assay: Anti-NASH activity in GAN diet-induced […] mouse liver assessed as reduction in hepatocyte fat by Oil Red O staining based assay; format: functional, cell-based
Liver [13] = assay: Anti-NASH activity in GAN diet-induced […] mouse liver assessed as reduction in macrosteatosis by Sirius red staining based analysis; format: functional
Liver [14] = assay: Anti-NASH activity in GAN diet-induced […] mouse liver assessed as reduction in hepatocyte collagen deposition by Sirius red staining based analysis; format: functional, cell-based
Mus musculus [15] = species: Mus musculus; assay: Anti-NASH activity in GAN diet-induced […] mouse assessed as reduction in Cd36 mRNA expression level; format: functional, organism-based
Mus musculus [16] = species: Mus musculus; assay: Anti-NASH activity in GAN diet-induced […] mouse assessed as reduction in Fabp4 mRNA expression level; format: functional, organism-based
Mus musculus [17] = species: Mus musculus; assay: Anti-NASH activity in GAN diet-induced […] mouse assessed as downregulation of P-ycard level; format: functional, organism-based
Mus musculus [18] = species: Mus musculus; assay: Anti-NASH activity in GAN diet-induced […] mouse assessed as reduction in A-sma mRNA expression; format: functional, organism-based
Mus musculus [19] = species: Mus musculus; assay: Anti-NASH activity in GAN diet-induced […] mouse assessed as suppression of Fgf15 expression; format: functional, organism-based
Mus musculus [20] = species: Mus musculus; assay: Anti-NASH activity in GAN diet-induced […] mouse assessed as upregulation of Cyp7a1 mRNA expression in liver; format: functional, organism-based
Mus musculus [21] = species: Mus musculus; assay: Anti-NASH activity in GAN diet-induced […] mouse assessed as decrease in cholesterol in liver; format: functional, organism-based
Mus musculus [22] = species: Mus musculus; assay: Anti-NASH activity in GAN diet-induced […] mouse assessed as reduction in N-tcp mRNA level; format: functional, organism-based
Mus musculus [23] = assay: Anti-NASH activity in GAN diet-induced […] mouse assessed as reduction of dihydroceramide level in serum administered orally for 12 weeks; format: functional, organism-based; details: route po
Mus musculus [24] = assay: Anti-NASH activity in GAN diet-induced […] mouse assessed as reduction of sphinogo-myelin level in serum administered orally for 12 weeks; format: functional, organism-based; details: route po
Mus musculus [25] = assay: Anti-NASH activity in HFMCD diet-induced […] mouse assessed as reduction in ALT serum level at 30 mg/kg, po for 4 weeks; format: functional, organism-based
Mus musculus [26] = species: Mus musculus; assay: Anti-NASH activity in HFMCD diet-induced […] mouse assessed as decrease in collagen deposition by Sirius red staining based analysis; format: functional, organism-based
Mus musculus [27] = species: Mus musculus; assay: Anti-NASH activity in GAN diet-induced […] mouse assessed as bile acid level in gall bladder; format: functional, organism-based
Mus musculus [28] = species: Mus musculus; assay: Anti-NASH activity in GAN diet-induced […] mouse assessed as increase in bile acid level in liver; format: functional, organism-based

CCCC(=O)O[C@@H]1CC[C@]2(C)[C@H]3CC[C@@H]4[C@H]5[C@H](C(C)C)CC[C@]5(C(=O)NCC(=O)O)CC[C@@]4(C)[C@]3(C)CC[C@H]2C1(C)C
active: Activity [1] | Activity [2] | Activity [3] | Activity (Mus musculus [6]) | Activity (Mus musculus [7]) | Activity (Mus musculus [8]) | Activity (Mus musculus [9]) | Activity (Mus musculus [10]) | Activity (Liver [11]) | Activity (Liver [12]) | Activity (Liver [13]) | Activity (Liver [14]) | Activity (Mus musculus [15]) | Activity (Mus musculus [16]) | Activity (Mus musculus [17]) | Activity (Mus musculus [18]) | Activity (Mus musculus [19]) | Activity (Mus musculus [20]) | Activity (Mus musculus [21]) | Activity (Mus musculus [22]) | Activity (Mus musculus [23]) | Activity (Mus musculus [24]) | Activity (Mus musculus [25]) | Activity (Mus musculus [26]) | Activity (Mus musculus [27]) | Activity (Mus musculus [28])
Active: Drug uptake [4]
Metabolite_Detected: Drug metabolism [5]
2100 nM: IC50 (Bile acid receptor)

Source: ChEMBL document CHEMBL5096210, “Discovery of Betulinic Acid Derivatives as Potent Intestinal Farnesoid X Receptor Antagonists to Ameliorate Nonalcoholic Steatohepatitis” (J Med Chem, 2022)
